Measurements taken from patent US10881110B2, “Herbicidal compositions comprising isoxazolo[5,4-b]pyridines” (BASF SE, priority 2014, dated 2021).

Experiments:
Assay in all cases: greenhouse post-emergence herbicidal test
APESV = assay type: in vivo, Apera spica-venti; parameters: key to herbicidal activity against APESV found: rating on a scale from 0 to 100; settings: post emergence
Procedure: (§1) The culture containers used were plastic pots containing medium loamy sand with approximately 4.6% of humus and 69.9% sand as substrate. The seeds of the test plants were sown separately for each species.
(§2) For the post-emergence treatment, the test plants were grown to a plant height of from 1 to 15 cm, depending on the plant habit, and only then treated with the active compounds which had been suspended or emulsified in water. To this end, the test plants were either sown directly, and grown in the same containers, or they were first grown separately as seedlings and transplanted into the test containers a few days prior to treatment.
(§3) Depending on the species, the plants were kept at 10-25° C. and 20-35° C., respectively.
(§4) The test period extended over 1 to 3 weeks. During this time, the plants were tended and their response to the individual treatments was evaluated 20 days after treatment except mentioned otherwise.
(§5) Evaluation was carried out using a scale from 0 to 100. 100 means no emergence of the plants, or complete destruction of at least the above-ground parts, and 0 means no damage or normal course of growth.
(§6) The respective stated components A and B, and, if appropriate, C, were formulated as a 10% by weight strength emulsion concentrate and, with addition of the amount of solvent system, introduced into the spray liquor used for applying the active compound. In the examples, the solvent used was water.
(§7) In the examples below, using the method of S. R. Colby (1967) “Calculating synergistic and antagonistic responses of herbicide combinations”, Weeds 15, p. 22 ff., the value E, which is expected if the activity of the individual active compounds is only additive, was calculated. E=X+Y−(X·Y/100)

ERICA = assay type: in vivo, Conyza canadensis; settings: post emergence; applied alone at 12 g/ha a.i.
Procedure: as §1, §2, §3, §4, §5, §6, §7

GALAP = assay type: in vivo, Galium aparine; settings: post emergence; applied alone at 12 g/ha a.i.
Procedure: as §1, §2, §3, §4, §5, §6, §7

POLCO = assay type: in vivo, Polygonum convolvulus; parameters: key to herbicidal activity against POLCO found: rating on a scale from 0 to 100; settings: post emergence
Procedure: as §1, §2, §3, §4, §5, §6, §7

ABUTH = assay type: in vivo, Abutilon theophrast; parameters: key to herbicidal activity against ABUTH found: rating on a scale from 0 to 100; settings: post emergence
Procedure: as §1, §2, §3, §4, §5, §6, §7

ALOMY = assay type: in vivo, Alopecurus myosuroides; parameters: key to herbicidal activity against ALOMY found: rating on a scale from 0 to 100; settings: post emergence
Procedure: as §1, §2, §3, §4, §5, §6, §7

IPOHE = assay type: in vivo, Ipomoea hederacea; parameters: key to herbicidal activity against IPOHE found: rating on a scale from 0 to 100; settings: post emergence, g/ha a.i.: I.1 31.25
Procedure: as §1, §2, §3, §4, §5, §6, §7

KCHSC = assay type: in vivo, Kochia scoparia; parameters: key to herbicidal activity against KCHSC found: rating on a scale from 0 to 100; settings: post emergence, g/ha a.i.: I.1 31.25
Procedure: as §1, §2, §3, §4, §5, §6, §7

MATCH = assay type: in vivo, Matricaria recutita; parameters: key to herbicidal activity against MATCH found: rating on a scale from 0 to 100; settings: post emergence, B.24 2
Procedure: as §1, §2, §3, §4, §5, §6, §7

PAPRH = assay type: in vivo, Papaver rhoeas; settings: 2 g/ha a.i.
Procedure: as §1, §2, §3, §4, §5, §6, §7

GERDI = assay type: in vivo, Geranium dissectum; parameters: key to herbicidal activity against GERDI found: rating on a scale from 0 to 100; settings: post emergence; application rate a.i.: I.1 62.5 g/ha, B.30 (imazamox) 3.75 g/ha, alone or as mixture (composition 1.030)
Procedure: as §1, §2, §3, §4, §5, §6, §7

VIOAR = assay type: in vivo, Viola arvensis; parameters: key to herbicidal activity against VIOAR found / herbicidal activity against VIOLA found: rating on a scale from 0 to 100; settings: post emergence; application rate a.i.: I.1 62.5 g/ha, B.30 (imazamox) 3.75 g/ha, alone or as mixture (composition 1.030)
Procedure: as §1, §2, §3, §4, §5, §6, §7

CONAR = assay type: in vivo, Convolvulus arvensis; parameters: key: rating on a scale from 0 to 100; settings: application rate a.i.: I.1 62.5 g/ha, B.30 (imazamox) 3.75 g/ha, alone or as mixture (composition 1.030)
Procedure: as §1, §2, §3, §4, §5, §6, §7

[1] = g/ha a.i.: I.1 62.5, B.20 4, mixture 62.5+4

CCSC(C)CC1CC(=O)C(/C(CC)=N/OC/C=C/Cl)=C(O)C1 (stereo not drawn) [B.1, clethodim]
herbicidal activity against APESV found (APESV; applied alone at 6 g/ha a.i.): 75
herbicidal activity against ERICA found (ERICA): 0
herbicidal activity against GALAP found (GALAP): 0
herbicidal activity against POLCO found (POLCO; applied alone at 6 g/ha a.i.): 0
herbicidal activity against ABUTH found (ABUTH; applied alone at 6 g/ha a.i.): 0
herbicidal activity against ABUTH found (ABUTH; applied alone at 12 g/ha a.i.): 25

CCCC(=NOCC(C)Oc1ccc(Cl)cc1)C1=C(O)CC(C2CCCSC2)CC1=O (stereo not drawn) [B.9, profoxydim]
herbicidal activity against APESV found (APESV; applied alone at 6 g/ha a.i.): 15
herbicidal activity against APESV found (APESV; applied alone at 12 g/ha a.i.): 55
herbicidal activity against ALOMY found (ALOMY; applied alone at 12 g/ha a.i.): 25
herbicidal activity against POLCO found (POLCO; applied alone at 12 g/ha a.i.): 0
herbicidal activity against ABUTH found (ABUTH; applied alone at 6 g/ha a.i.): 0
herbicidal activity against ABUTH found (ABUTH; applied alone at 12 g/ha a.i.): 40

COc1cc(OC)nc(Oc2cccc(Oc3nc(OC)cc(OC)n3)c2C(=O)O)n1 [B.20, bispyribac-sodium]
herbicidal activity against APESV found (APESV; [1]): 60
herbicidal activity against IPOHE found (IPOHE; B.20 2, mixture 31.25+2): 30
herbicidal activity against ALOMY found (ALOMY; [1]): 55
herbicidal activity against ALOMY found (ALOMY; g/ha a.i.: I.1 125, B.20 2, mixture 125+2): 30
herbicidal activity against ALOMY found (ALOMY; g/ha a.i.: I.1 125, B.20 4, mixture 125+4): 55
herbicidal activity against ABUTH found (ABUTH; g/ha a.i.: I.1 31.25, B.20 2, mixture 31.25+2): 35
herbicidal activity against ABUTH found (ABUTH; g/ha a.i.: I.1 31.25, B.20 4, mixture 31.25+4): 65

COc1cc(OC)nc(NC(=O)NS(=O)(=O)Nc2ccccc2C(=O)C2CC2)n1 [B.24, cyclosulfamuron]
herbicidal activity against APESV found (APESV; g/ha a.i.: I.1 31.25, B.24 1, mixture 31.25+1): 0
herbicidal activity against IPOHE found (IPOHE; B.24 1, mixture 31.25+1): 75
herbicidal activity against KCHSC found (KCHSC; B.24 1, mixture 31.25+1): 45
herbicidal activity against KCHSC found (KCHSC; B.24 2, mixture 31.25+2): 45
herbicidal activity against MATCH found (MATCH; g/ha a.i.: I.1 31.25, mixture 31.25+2): 65
herbicidal activity against MATCH found (MATCH; g/ha a.i.: I.1 125, mixture 125+2): 65
herbicidal activity against ALOMY found (ALOMY; g/ha a.i.: I.1 125, B.24 1, mixture 125+1): 25
herbicidal activity against ALOMY found (ALOMY; g/ha a.i.: I.1 125, B.24 2, mixture 125+2): 35
herbicidal activity against ABUTH found (ABUTH; g/ha a.i.: I.1 31.25, B.24 2, mixture 31.25+2): 85

COc1ncc(F)c2nc(S(=O)(=O)Nc3c(F)cccc3F)nn12 [B.26, florasulam]
herbicidal activity against PAPRH found (PAPRH): 98
herbicidal activity against POLCO found (POLCO; 2 g/ha a.i.): 85

COCc1cnc(C2=NC(C)(C(C)C)C(=O)N2)c(C(=O)O)c1 (stereo not drawn) [B.30, imazamox]
herbicidal activity against GERDI found (GERDI): 90
herbicidal activity against VIOAR found (VIOAR): 45
herbicidal activity against CONAR found (CONAR): 85
